Data published in US20260207717A1, “METHODS FOR TREATING INFANTILE-ONSET POMPE DISEASE IN PEDIATRIC PATIENTS” (Amicus Therapeutics, Inc., priority 2022, published 2026).

Legend:
[1] = system: adult subjects with late-onset Pompe disease (LOPD); assay: ATB200-03 (PROPEL) trial, safety; set-up: species or system human; settings: in vivo
Source text: Concomitant medications and nondrug therapies were also be recorded.
Safety Analyses. Safety data was summarized using counts and percentages for categorical data and descriptive statistics (mean, standard deviation, median, minimum, maximum) for continuous data. • Efficacy Results from the ATB200-03 Trial

[2] = system: creatine kinase (CK), urinary hexose tetrasaccharide (Hex4); assay: ATB200-03 (PROPEL) trial, biomarkers; assay type: in vivo, human; settings: for mean urinary Glc4 concentration: ERT-experienced patients
Source text: Pharmacodynamic endpoints were as follows: • change from baseline to Week 52 in serum CK level • change from baseline to Week 52 in urinary Hex4 level

[3] = system: LAMP1, LC3, dysferlin in muscle fibers; assay: Biomarker changes (LAMP1, LC3, dysferlin) in muscle of Gaa KO mice; assay type: in vivo
Experimental: The therapeutic effects of ATB200 and miglustat were evaluated and compared against those of Alglucosidase alfa in Gaa KO mice. For the study, male Gaa KO (3- to 4-month old) and age-matched wild-type (WT) mice were used. Alglucosidase alfa was administered via bolus tail vein intravenous (IV) injection. In the co-administration regimen, miglustat was administered via oral gavage (PO) 30 minutes prior to the IV injection of ATB200. Treatment was given biweekly. Treated mice were sacrificed after 14 days from the last administration and various tissues were collected for further analysis. Table 11 summarizes the study design:
Tissue samples were also analyzed for biomarker changes following the methods discussed in: Khanna R, et al. (2012), “The pharmacological chaperone [i.e., enzyme stabilizer] […]
Similarly, intense LC3-positive aggregates in the muscle fibers of untreated Gaa KO mice signify the presence of autophagic zones and autophagy build-up. […] A similar observation was made when the expression of LC3 was assessed using western blot. […]
Dysferlin, a protein involved in membrane repair and whose deficiency/mistrafficking is associated with a number of muscular dystrophies, was also assessed.

[4] = system: single fibers isolated from the white gastrocnemius of Gaa KO mice; assay: Single fiber analysis (LAMP1/LC3 co-immunofluorescence); assay type: in vivo
Source text: FIG. 17 depicts co-immunofluorescent staining of LAMP1 (green) (see for example, “B”) and LC3 (red) (see, for example, “A”) in single fibers isolated from the white gastrocnemius of Gaa KO mice treated with a vehicle, alglucosidase alfa, or ATB200. “C” depicts clearance of autophagic debris and absence of enlarged lysosome. A minimum of 30 fibers were examined from each animal.
As a result, a significant portion of muscle fibers analyzed (36-60%) from ATB200-treated mice appeared normal or near-normal.

[5] = system: LOPD population (ERT-naïve and ERT-experienced); assay: Indirect treatment comparison, multi-level network meta regression (ML-NMR); set-up: species or system human; settings: base-case scenario, sensitivity analysis (RCT data only, FIGS. 66, 67)
Experimental: Moreover, a comparison of three randomized clinical trials (LOTS: alglucosidase alfa vs placebo; COMET: avalglucosidase alfa vs alglucosidase alfa; and PROPEL: cipaglucosidase alfa/miglustat vs alglucosidase alfa) share 6MWD and % predicted FVC as key primary or secondary endpoints. Using patient-level data from the PROPEL randomized clinical trial (RCT) plus aggregate published data from other RCTs, Phase I/II and open label extension trials, a multi-level network meta-regression was conducted, adjusting for various baseline covariates including previous ERT duration. The base case scenario had covariates resembling the PROPEL population (naïve and ERT-experienced) and analyzed 6MWD and FVC change from baseline at 52 weeks. […]
A systematic literature review (SLR) was conducted to identify relevant published clinical studies of ERTs in LOPD. Outcomes assessed were change from baseline in 6-minute walking distance (6MWD) (m) and in forced vital capacity (FVC; % predicted) at week 52, acknowledged by clinicians, HTA agencies and payers as key LOPD trial endpoints. […]
A base-case scenario was evaluated in which all covariates were set to the target population of the PROPEL trial. […]

[6] = system: subjects with Pompe disease; settings: LOPD, systematic review (Toscano and Schoser 2013); cited from earlier work
[7] = system: adult subjects with late-onset Pompe disease (LOPD); assay: ATB200-03 (PROPEL) phase 3 trial, efficacy; assay type: in vivo, human; settings: for absolute decline in percent-predicted FVC: 52 weeks; for 6MWD Baseline / FVC (% predicted) Baseline: before treatment
Experimental: Efficacy Analyses. The primary efficacy endpoint (i.e., change from baseline to Week 52 in 6MWD) was analyzed using a parametric analysis of covariance (ANCOVA) model to compare between the new treatment and the control. […] However, the baseline 6MWD could not be used in the model twice (both as a continuous and a categorical variable) due to the expected high point biserial correlation between them. Thus, the 6MWD continuous variable remained in the model but the categorical 6MWD was removed.

[8] = ERT treatment naive population, listed as Alglucosidase alfa
[9] = overall ERT switch and ERT naïve population

Substance: [199-arginine,223-histidine]prepro-α-glucosidase (human) [alglucosidase alfa]
- patients who discontinued treatment due to an adverse event [1]: 2.6%
- patients with injection associated reactions (IARs) [1]: 26%
- mean urinary Glc4 concentration ([2]; Week 52): 9.1 mmol/mol
- mean urinary Glc4 concentration ([2]; baseline): 7.2 mmol/mol
- mean change of CK ([2]; after 52 weeks): +15.6%
- mean change of urine Hex-4 ([2]; combined ERT switch and ERT naïve population, after 52 weeks): +11.0%
- LC3 II levels (western blot), effect on autophagy [3]: modest
- Fibers with Autophagy Buildup [4]: >90%
- Fibers with Normal or Near-normal Appearance [4]: <10%
- relative effect on 6MWT and FVC [5]: numerically favorable versus placebo
- subjects without initial improvement during treatment [6]: > 30%
- 6MWD CFBL at Week 52 ([7]; ERT switch population): 0.0 m
- FVC (% predicted) CFBL at Week 52 ([7]; ERT switch population): −4.0 (0.9) % predicted
- absolute decline in percent-predicted FVC ([7]; ERT switch population): 4.0%
- 6MWD Baseline ([7]; ERT switch population): 334.6 (114.0) m
- FVC (% predicted) Baseline ([7]; ERT switch population): 67.5 (21.0) % predicted
- 6MWD CFBL at Week 52 ([7]; ERT switch population, listed as Alglucosidase alfa): 0.0 (7.2) m
- 6MWD CFBL at Week 52 ([7]; ERT treatment naive population): 38 m
- FVC (% predicted) CFBL at Week 52 ([7]; ERT treatment naive population): −3.6 % predicted
- 6MWD Baseline ([7]; ERT treatment naive population): 420.9 (135.7) m
- FVC (% predicted) Baseline ([7]; ERT treatment naive population): 79.1 (22.6) % predicted
- 6MWD CFBL at Week 52 [7, 8]: +38.3 (11.1) m
- FVC (% predicted) CFBL at Week 52 [7, 8]: −3.6 (1.8) % predicted
- mean change (SD) in MMT score for lower extremities ([7]; baseline to week 52): 0.9 (2.58)
- mean change in total GSGC score ([7]; baseline to week 52): 0.77 (1.8)
- 6MWD CFBL at Week 52 [7, 9]: 7 m
- 6MWD Baseline [7, 9]: 351.0 (121.3) m
- 6MWD CFBL at Week 52 ([7]; overall ERT switch and ERT naïve population, listed as Alglucosidase alfa): +7.2 (6.6) m
- GSGC compared to alglucosidase alfa ([7]; overall and ERT-experienced populations, week 52): worsening
- FVC (% predicted) CFBL at Week 52 ([7]; overall population): −4.0 (0.8) % predicted
- absolute decline in percent-predicted FVC ([7]; overall population): 4.0%
- FVC (% predicted) Baseline ([7]; overall population): 69.7 (21.5) % predicted
